Data on 24 molecules can be found in patent US20070259907A1, “ARYL AND ARYLALKYLENYL SUBSTITUTED THIAZOLOQUINOLINES AND THIAZOLONAPHTHYRIDINES” (priority 2004, published 2007).

Each structure is given as a SMILES string.

One may read the melting point as the temperature, or range, at which the solid turns liquid. Turning to `CCCc1nc2c(N)nc3cc(-c4cccc(C(=O)N(CC)CC)c4)ccc3c2s1` [Example 42, 3-(4-Amino-2-propylthiazolo[4,5-c]quinolin-7-yl)-N,N-diethylbenzamide], the melting point lay within 169 to 172 °C.
Then `CCCc1nc2c(N)nc3ccc(-c4ccccc4CO)cc3c2s1` [Example 139, [2-(4-Amino-2-propylthiazolo[4,5-c]quinolin-8-yl)phenyl]methanol], with 194 to 196 °C; and `CCCc1nc2c(N)nc3cc(-c4ccccc4NC(C)=O)ccc3c2s1` [Example 46, N-[2-(4-Amino-2-propylthiazolo[4,5-c]quinolin-7-yl)phenyl]acetamide], with 206 to 209 °C; and `CCCc1nc2c(N)nc3cc(-c4cccc(S(C)(=O)=O)c4)ccc3c2s1` [Example 48, 7-[3-(Methylsulfonyl)phenyl]-2-propylthiazolo[4,5-c]quinolin-4-amine], with 242 to 245 °C.
`CCCc1nc2c(N)nc3ccc(-c4cccc(CO)c4)cc3c2s1` [Example 140, [3-(4-Amino-2-propylthiazolo[4,5-c]quinolin-8-yl)phenyl]methanol] yielded a melting point of 176 to 177 °C.
Under `CCCc1nc2c(N)nc3ccc(-c4cccc(CN)c4)cc3c2s1` [Example 142, 8-[3-(Aminomethyl)phenyl]-2-propylthiazolo[4,5-c]quinolin-4-amine] stands 189 to 191 °C; under `CCCc1nc2c(N)nc3cc(-c4ccccc4C(N)=O)ccc3c2s1` [Example 47, 2-(4-Amino-2-propylthiazolo[4,5-c]quinolin-7-yl)benzamide], 274 to 276 °C; under `CCCc1nc2c(N)nc3cc(-c4ccccc4CO)ccc3c2s1` [Example 3, [2-(4-Amino-2-propylthiazolo[4,5-c]quinolin-7-yl)phenyl]methanol], 216 to 219 °C.
Then `CCCc1nc2c(N)nc3ccc(-c4ccc(CO)cc4)cc3c2s1` [Example 141, [4-(4-Amino-2-propylthiazolo[4,5-c]quinolin-8-yl)phenyl]methanol], with 212 to 214 °C; and `CCCc1nc2c(N)nc3ccc(-c4ccc(NC(C)=O)cc4)cc3c2s1` [Example 137, N-[4-(4-Amino-2-propylthiazolo[4,5-c]quinolin-8-yl)phenyl]acetamide], with 251 to 254 °C; and `CCCc1nc2c(N)nc3cc(-c4ccc(F)cc4CN)ccc3c2s1` [Example 51, 7-[2-(Aminomethyl)-4-fluorophenyl)-2-propylthiazolo[4,5-c]quinolin-4-amine], with 181 to 184 °C.
For `CCCc1nc2c(N)nc3cc(-c4cccc(C(=O)N5CCOCC5)c4)ccc3c2s1` [Example 4, 7-[3-(Morpholin-4-ylcarbonyl)phenyl]-2-propylthiazolo[4,5-c]quinolin-4-amine], the melting point fell in the range of 190 to 193 °C.
Then `CCCc1nc2c(N)nc3ccc(-c4cccc(NS(C)(=O)=O)c4)cc3c2s1` [Example 138, N-[3-(4-Amino-2-propylthiazolo[4,5-c]quinolin-8-yl)phenyl]methanesulfonamide], with 244 to 246 °C; and `CCCc1nc2c(N)nc3cc(-c4cccc(NS(C)(=O)=O)c4)ccc3c2s1` [Example 2, N-[3-(4-Amino-2-propylthiazolo[4,5-c]quinolin-7-yl)phenyl]methanesulfonamide], with 228 to 231 °C.
Under `CCCc1nc2c(N)nc3cc(-c4cccc(C(=O)NC5CC5)c4)ccc3c2s1` [Example 45, 3-(4-Amino-2-propylthiazolo[4,5-c]quinolin-7-yl)-N-cyclopropylbenzamide] stands 251 to 254 °C; under `CCCc1nc2c(N)nc3ccc(-c4cccc(S(C)(=O)=O)c4)cc3c2s1` [Example 134, 8-[3-(Methylsulfonyl)phenyl]-2-propylthiazolo[4,5-c]quinolin-4-amine], 252 to 255 °C; under `CCCc1nc2c(N)nc3ccc(-c4ccc(CN)cc4)cc3c2s1` [Example 143, 8-[4-(Aminomethyl)phenyl]-2-propylthiazolo[4,5-c]quinolin-4-amine], 225 to 226 °C.
Then `CCCc1nc2c(N)nc3cc(-c4cccc(NC(C)=O)c4)ccc3c2s1` [Example 49, N-[3-(4-Amino-2-propylthiazolo[4,5-c]quinolin-7-yl)phenyl]acetamide], with 173 to 176 °C.
`CCCc1nc2c(N)nc3cc(-c4cccc(CO)c4)ccc3c2s1` [Example 1, [3-(4-Amino-2-propylthiazolo[4,5-c]quinolin-7-yl)phenyl]methanol]: the melting point was 186 to 188 °C.
Then `CCCc1nc2c(N)nc3ccc(-c4ccc(F)cc4CN)cc3c2s1` [Example 136, 8-[2-(Aminomethyl)-4-fluorophenyl]-2-propylthiazolo[4,5-c]quinolin-4-amine], with 198 to 201 °C.
Then `CCCc1nc2c(N)nc3cc(-c4ccc(NC(C)=O)cc4)ccc3c2s1` [Example 44, N-[4-(4-Amino-2-propylthiazolo[4,5-c]quinolin-7-yl)phenyl]acetamide], with 252 to 255 °C; and `CCCc1nc2c(N)nc3cc(-c4cccc(CN)c4)ccc3c2s1` [Example 50, 7-(3-Aminomethylphenyl)-2-propylthiazolo[4,5-c]quinolin-4-amine], with 168 to 171 °C.
Molecule `CCCc1nc2c(N)nc3ccc(-c4cccc(NC(C)=O)c4)cc3c2s1` [Example 135, N-[3-(4-Amino-2-propylthiazolo[4,5-c]quinolin-8-yl)phenyl]acetamide] yielded a melting point of 242 to 245 °C.
Then `CCCc1nc2c(N)nc3cc(-c4cccc(C(=O)N5CCCC5)c4)ccc3c2s1` [Example 43, 2-Propyl-7-[3-(pyrrolidin-1-ylcarbonyl)phenyl]thiazolo[4,5-c]quinolin-4-amine], with 177 to 180 °C.
